Laboratory results from patent publication US5066664A, “2-(hydroxy-2-alkylphenylamino)-oxazolines and thiazolines as anti-glaucoma and vasoconstrictive agents” (Allergan, Inc., priority 1990, dated 1991).
Counter-ions that a name gives are not always drawn. Like-named read-outs stand apart in the source and are kept apart here.

Key:
[1] = tested on: alpha 1 adrenergic receptors; test: Rabbit Aorta: Alpha 1 adrenergic receptor assay (isolated thoracic aorta rings, tension); conditions: 37° C., cumulative addition
[2] = tested on: New Zealand white rabbit eyes; test: Intraocular pressure (anti-glaucoma) assay in unanesthetized rabbits, topical unilateral administration; assay type: in vivo; conditions: for Maximum Difference in Intraocular Pressure After Solution Administration, Ipsilateral (Treated) Eye: 0.1% (W/V) in distilled water, single 50 microliter drop topically to one eye; for Maximum Difference in Intraocular Pressure After Solution Administration, Contralateral (Untreated) Eye: single 50 microliter drop to the other eye, contralateral (untreated) eye received saline
Method: The anti-glaucoma activity (ability to maintain or reduce intraocular pressure) of the compounds of the present invention was confirmed by the following assay procedure. This assay procedure is generally recognized in the art to provide pertinent information with respect to the anti-glaucomaactivity of the formulations assayed. Thus, each of the compounds of the invention to be tested was dissolved in distilled water at a concentration of 0.1% (W/V). Each of these solutions was administered topically and unilaterally to one eye of a drug-naive, unanesthetized New Zealand white rabbit in a single 50 microliter drop. The contralateral eye received an equal volume of saline prior to determining the intraocular pressure after the mixture was administered. Also, approximately 10 microliters of 0.5% (W/V) proparacine (topical anesthetic) was applied to the corneas of each of the rabbits before determining intraocular pressure. As a control test, six (6) other drug-naive, unanesthetized New Zealand white rabbits were treated and tested as described above except that no compound of the invention was included in the solutions administered to the eyes.
The intraocular pressure was determined in both eyes of each rabbit both before and after the solutions were administered. Such intraocular pressure determinations were made in the conventional manner using conventional equipment.

[3] = target: alpha 1 adrenergic receptors; conditions: control substance; Shayes and Green, J. Pharmacol. Exp. Ther. 1971, Vol 180, pp 317-325; cited from earlier work

SMILES	EC50 [1] [nM]	Maximum Difference in Intraocular Pressure After Solution Administration, Ipsilateral (Treated) Eye [2] [mm Hg]	Maximum Difference in Intraocular Pressure After Solution Administration, Contralateral (Untreated) Eye ([2]; 0.1% (W/V)) [mm Hg]	reduction of intraocular pressure in the contralateral eye compared with the ipsilateral eye ([2]; result in words, New Zealand white rabbit, 0.1% (W/V))	EC50 [3] [nM]
Cc1c(O)cccc1NC1=NCCO1 [Compound 1, 2-(3-Hydroxy-2-methylphenylamino)-Oxazoline, hydrochloride]	602 ± 108	-3.3 ± 1.0	-7.3 ± 1.0	the reduction in the contralateral eye is greater than in the ipsilateral eye	
Cc1c(O)ccc(NC2=NCCO2)c1C.Cl [Compound 2, 2-(2,3-Dimethyl-4-hydroxyphenylamino)-oxazoline, hydrochloride]	19.9 ± 15.6	-3.9 ± 1.9	-3.3 ± 0.5		
CNC[C@H](O)c1cccc(O)c1 [L-phenylephrine]					182
